According to paper PMC8213057, “Targeting ALK2: An Open Science Approach to Developing Therapeutics for the Treatment of Diffuse Intrinsic Pontine Glioma” (Journal of Medicinal Chemistry, 2020):

How the values were obtained:
CDK1/cyclin B = CDK1/cyclin B (Homo sapiens, UniProt P06493); test: biochemical; conditions: read-out: % enzyme activity, 1 μM; Run 1, Run 2
LIMK1 = LIMK1 (Homo sapiens, UniProt P53667); conditions: 1 μM; Run 1, Run 2
RET = RET (Homo sapiens, UniProt P07949); conditions: 1 μM; Run 1, Run 2
CDK4/cyclin D3 = CDK4/cyclin D3 (Homo sapiens, UniProt P11802); test: biochemical; conditions: read-out: % enzyme activity, 1 μM; Run 1, Run 2
Chain of CDK4/cyclin D3 (P11802 whole entry): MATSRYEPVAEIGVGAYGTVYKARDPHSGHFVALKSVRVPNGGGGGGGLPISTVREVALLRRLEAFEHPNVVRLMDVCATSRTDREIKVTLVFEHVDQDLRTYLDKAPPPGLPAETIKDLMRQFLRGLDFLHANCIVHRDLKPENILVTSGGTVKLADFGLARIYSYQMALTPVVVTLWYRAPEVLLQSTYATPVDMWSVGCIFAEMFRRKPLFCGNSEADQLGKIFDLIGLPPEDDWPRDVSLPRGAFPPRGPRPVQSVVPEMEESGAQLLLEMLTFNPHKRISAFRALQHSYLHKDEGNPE
Chain of CDK4/cyclin D3 (P30281 whole entry partner): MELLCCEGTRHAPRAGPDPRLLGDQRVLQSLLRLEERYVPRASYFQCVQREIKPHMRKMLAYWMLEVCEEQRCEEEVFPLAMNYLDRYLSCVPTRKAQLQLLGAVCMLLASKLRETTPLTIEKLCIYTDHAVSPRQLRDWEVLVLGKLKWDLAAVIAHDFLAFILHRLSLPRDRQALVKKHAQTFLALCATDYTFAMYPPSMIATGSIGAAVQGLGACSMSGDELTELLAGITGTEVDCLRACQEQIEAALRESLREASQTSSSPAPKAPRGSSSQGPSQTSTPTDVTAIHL

CDK9/cyclin T2 = CDK9/cyclin T2 (Homo sapiens, UniProt P50750); conditions: 1 μM; Run 1, Run 2
Chain of CDK9/cyclin T2 (P50750 whole entry): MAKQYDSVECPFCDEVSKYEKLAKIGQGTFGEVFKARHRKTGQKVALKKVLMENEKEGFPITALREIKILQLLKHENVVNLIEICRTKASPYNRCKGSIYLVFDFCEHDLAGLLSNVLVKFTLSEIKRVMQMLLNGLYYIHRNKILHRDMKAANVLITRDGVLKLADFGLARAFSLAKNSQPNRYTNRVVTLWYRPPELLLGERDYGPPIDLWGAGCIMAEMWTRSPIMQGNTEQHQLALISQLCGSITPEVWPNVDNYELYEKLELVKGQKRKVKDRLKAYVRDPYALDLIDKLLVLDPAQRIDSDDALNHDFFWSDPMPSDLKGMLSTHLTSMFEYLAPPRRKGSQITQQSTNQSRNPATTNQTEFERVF
Chain of CDK9/cyclin T2 (O60583 whole entry partner): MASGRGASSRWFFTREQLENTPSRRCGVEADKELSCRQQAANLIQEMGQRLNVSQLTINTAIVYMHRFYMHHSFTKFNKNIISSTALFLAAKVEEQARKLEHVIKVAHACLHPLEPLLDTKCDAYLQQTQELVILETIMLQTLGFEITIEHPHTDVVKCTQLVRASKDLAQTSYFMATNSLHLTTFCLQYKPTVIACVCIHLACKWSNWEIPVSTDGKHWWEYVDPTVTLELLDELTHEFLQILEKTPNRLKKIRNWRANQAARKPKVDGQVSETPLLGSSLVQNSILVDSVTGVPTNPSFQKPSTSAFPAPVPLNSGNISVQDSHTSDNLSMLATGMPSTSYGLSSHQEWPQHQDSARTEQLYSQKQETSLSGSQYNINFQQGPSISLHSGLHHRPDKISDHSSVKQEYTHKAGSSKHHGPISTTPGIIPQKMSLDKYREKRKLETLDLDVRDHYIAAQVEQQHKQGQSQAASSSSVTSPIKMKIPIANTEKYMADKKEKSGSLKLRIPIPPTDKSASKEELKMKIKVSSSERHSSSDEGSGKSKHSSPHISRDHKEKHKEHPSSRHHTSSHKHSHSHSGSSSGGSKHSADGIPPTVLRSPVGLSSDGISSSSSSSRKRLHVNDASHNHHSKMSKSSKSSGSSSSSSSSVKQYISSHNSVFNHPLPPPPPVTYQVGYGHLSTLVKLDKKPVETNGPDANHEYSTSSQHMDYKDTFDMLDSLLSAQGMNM

ULK2 = target: T1, ULK2 (Homo sapiens, UniProt Q8IYT8); test: biochemical; conditions: read-out: % enzyme activity, 1 μM; Run 1, Run 2
T1 sequence (Q8IYT8 1-1036): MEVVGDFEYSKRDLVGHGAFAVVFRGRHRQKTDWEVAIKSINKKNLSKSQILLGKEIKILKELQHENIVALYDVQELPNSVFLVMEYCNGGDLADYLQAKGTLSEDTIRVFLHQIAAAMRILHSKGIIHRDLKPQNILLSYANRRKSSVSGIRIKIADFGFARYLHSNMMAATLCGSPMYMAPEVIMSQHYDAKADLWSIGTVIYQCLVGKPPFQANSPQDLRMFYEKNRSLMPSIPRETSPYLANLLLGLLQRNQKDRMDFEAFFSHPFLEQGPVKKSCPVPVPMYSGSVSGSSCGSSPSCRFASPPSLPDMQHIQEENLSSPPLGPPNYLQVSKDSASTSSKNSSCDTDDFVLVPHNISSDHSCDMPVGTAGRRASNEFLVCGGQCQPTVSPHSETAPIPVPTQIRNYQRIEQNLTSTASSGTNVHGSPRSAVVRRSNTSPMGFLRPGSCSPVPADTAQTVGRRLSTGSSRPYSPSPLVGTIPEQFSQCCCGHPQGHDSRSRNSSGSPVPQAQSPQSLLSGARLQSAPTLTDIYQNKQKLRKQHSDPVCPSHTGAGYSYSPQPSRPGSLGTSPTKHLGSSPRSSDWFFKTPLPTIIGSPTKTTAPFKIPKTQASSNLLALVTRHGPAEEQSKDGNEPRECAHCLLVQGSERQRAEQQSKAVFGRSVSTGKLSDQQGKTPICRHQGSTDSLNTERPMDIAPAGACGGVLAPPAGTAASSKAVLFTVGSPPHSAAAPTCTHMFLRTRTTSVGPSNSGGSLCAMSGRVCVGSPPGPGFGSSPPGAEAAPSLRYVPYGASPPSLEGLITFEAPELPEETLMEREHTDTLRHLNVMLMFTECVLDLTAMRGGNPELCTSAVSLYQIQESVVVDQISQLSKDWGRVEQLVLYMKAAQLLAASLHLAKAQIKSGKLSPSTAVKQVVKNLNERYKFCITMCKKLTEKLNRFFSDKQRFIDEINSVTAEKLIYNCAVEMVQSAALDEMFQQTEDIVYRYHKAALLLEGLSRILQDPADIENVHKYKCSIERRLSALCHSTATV

CDK14/cyclin Y (PFTK1) = CDK14/cyclin Y (PFTK1) (Homo sapiens, UniProt O94921); test: biochemical; conditions: read-out: % enzyme activity, 1 μM; Run 1, Run 2
Chain of CDK14/cyclin Y (PFTK1) (O94921 whole entry): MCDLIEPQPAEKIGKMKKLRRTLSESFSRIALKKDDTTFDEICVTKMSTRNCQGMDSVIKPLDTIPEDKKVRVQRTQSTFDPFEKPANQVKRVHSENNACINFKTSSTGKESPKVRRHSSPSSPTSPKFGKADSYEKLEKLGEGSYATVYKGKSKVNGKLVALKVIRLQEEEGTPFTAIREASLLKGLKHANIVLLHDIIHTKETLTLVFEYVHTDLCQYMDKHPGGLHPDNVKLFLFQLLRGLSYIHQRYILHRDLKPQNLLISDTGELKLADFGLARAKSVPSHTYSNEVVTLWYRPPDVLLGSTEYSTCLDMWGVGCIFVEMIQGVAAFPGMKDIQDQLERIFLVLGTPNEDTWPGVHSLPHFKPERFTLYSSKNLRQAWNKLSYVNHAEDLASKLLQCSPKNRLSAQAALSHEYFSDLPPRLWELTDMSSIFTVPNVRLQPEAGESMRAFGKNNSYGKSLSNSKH
Chain of CDK14/cyclin Y (PFTK1) (Q8ND76 whole entry partner): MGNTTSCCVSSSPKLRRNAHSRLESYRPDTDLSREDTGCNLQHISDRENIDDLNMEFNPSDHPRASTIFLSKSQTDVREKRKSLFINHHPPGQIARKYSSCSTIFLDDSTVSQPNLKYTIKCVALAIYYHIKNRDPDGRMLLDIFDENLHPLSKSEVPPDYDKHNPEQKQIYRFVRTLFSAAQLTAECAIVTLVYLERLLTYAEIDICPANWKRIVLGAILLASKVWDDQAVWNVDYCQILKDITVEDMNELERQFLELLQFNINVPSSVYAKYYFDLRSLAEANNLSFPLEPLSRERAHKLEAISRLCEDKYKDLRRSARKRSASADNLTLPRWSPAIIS

WNK2 = WNK2 (Homo sapiens, UniProt Q9Y3S1); test: biochemical; conditions: read-out: % enzyme activity, 1 μM; Run 1, Run 2
VRK2 = VRK2 (Homo sapiens, UniProt Q86Y07); test: biochemical; conditions: read-out: % enzyme activity, 1 μM; Run 1, Run 2
Chain of VRK2 (Q86Y07 whole entry, species assumed): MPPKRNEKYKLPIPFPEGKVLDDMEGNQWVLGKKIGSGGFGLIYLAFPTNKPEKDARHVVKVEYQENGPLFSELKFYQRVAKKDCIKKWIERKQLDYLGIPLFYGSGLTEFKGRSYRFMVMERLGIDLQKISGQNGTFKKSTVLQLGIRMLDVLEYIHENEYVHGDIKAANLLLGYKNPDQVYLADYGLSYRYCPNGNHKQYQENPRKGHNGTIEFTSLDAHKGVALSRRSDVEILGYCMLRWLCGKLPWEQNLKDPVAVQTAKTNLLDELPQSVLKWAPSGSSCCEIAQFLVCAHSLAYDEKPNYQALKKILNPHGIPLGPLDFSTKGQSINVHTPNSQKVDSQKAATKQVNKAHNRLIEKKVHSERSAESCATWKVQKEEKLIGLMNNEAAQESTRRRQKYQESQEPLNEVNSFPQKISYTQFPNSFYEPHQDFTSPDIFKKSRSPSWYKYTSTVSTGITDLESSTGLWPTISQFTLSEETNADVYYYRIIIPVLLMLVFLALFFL

DYRK2 = target: T2, DYRK2 (Homo sapiens, UniProt Q92630); conditions: 1 μM; Run 1, Run 2
T2 sequence (Q92630 1-601): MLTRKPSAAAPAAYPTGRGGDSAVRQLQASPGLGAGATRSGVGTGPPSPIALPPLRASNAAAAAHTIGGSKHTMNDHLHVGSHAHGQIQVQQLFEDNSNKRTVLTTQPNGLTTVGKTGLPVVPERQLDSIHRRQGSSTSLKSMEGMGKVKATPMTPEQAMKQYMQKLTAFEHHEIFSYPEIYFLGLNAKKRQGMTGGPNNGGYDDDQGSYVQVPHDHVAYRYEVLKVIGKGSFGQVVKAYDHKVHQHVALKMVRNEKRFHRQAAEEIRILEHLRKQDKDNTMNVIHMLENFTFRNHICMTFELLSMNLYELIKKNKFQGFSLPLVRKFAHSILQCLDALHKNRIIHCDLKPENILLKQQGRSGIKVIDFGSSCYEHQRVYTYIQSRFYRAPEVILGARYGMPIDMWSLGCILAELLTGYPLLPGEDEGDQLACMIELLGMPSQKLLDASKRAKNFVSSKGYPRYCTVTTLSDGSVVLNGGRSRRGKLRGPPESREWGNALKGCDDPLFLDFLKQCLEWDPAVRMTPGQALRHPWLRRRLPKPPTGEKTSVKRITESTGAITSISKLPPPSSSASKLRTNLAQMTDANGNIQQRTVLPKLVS

CLK1 = CLK1 (Homo sapiens, UniProt P49759); conditions: 1 μM; Run 1, Run 2
CAMK2b = CAMK2b (Homo sapiens, UniProt Q13554); conditions: 1 μM; Run 1, Run 2
PHKg2 = target: T3, PHKg2 (Homo sapiens, UniProt P15735); conditions: 1 μM; Run 1, Run 2
T3 sequence (P15735 1-406): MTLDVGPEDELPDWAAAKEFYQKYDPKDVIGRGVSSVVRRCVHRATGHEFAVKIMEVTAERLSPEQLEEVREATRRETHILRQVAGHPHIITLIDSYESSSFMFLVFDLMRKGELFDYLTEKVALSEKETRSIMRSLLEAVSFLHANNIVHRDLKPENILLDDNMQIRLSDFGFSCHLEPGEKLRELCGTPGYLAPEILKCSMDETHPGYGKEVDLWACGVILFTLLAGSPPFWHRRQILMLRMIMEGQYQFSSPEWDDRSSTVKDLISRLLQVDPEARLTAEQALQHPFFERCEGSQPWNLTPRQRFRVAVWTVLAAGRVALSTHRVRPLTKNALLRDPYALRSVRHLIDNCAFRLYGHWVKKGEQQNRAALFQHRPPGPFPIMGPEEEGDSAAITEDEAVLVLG

HIPK3 = HIPK3 (Homo sapiens, UniProt Q9H422); test: biochemical; conditions: read-out: % enzyme activity, 1 μM; Run 1, Run 2
Chain of HIPK3 (Q9H422 whole entry): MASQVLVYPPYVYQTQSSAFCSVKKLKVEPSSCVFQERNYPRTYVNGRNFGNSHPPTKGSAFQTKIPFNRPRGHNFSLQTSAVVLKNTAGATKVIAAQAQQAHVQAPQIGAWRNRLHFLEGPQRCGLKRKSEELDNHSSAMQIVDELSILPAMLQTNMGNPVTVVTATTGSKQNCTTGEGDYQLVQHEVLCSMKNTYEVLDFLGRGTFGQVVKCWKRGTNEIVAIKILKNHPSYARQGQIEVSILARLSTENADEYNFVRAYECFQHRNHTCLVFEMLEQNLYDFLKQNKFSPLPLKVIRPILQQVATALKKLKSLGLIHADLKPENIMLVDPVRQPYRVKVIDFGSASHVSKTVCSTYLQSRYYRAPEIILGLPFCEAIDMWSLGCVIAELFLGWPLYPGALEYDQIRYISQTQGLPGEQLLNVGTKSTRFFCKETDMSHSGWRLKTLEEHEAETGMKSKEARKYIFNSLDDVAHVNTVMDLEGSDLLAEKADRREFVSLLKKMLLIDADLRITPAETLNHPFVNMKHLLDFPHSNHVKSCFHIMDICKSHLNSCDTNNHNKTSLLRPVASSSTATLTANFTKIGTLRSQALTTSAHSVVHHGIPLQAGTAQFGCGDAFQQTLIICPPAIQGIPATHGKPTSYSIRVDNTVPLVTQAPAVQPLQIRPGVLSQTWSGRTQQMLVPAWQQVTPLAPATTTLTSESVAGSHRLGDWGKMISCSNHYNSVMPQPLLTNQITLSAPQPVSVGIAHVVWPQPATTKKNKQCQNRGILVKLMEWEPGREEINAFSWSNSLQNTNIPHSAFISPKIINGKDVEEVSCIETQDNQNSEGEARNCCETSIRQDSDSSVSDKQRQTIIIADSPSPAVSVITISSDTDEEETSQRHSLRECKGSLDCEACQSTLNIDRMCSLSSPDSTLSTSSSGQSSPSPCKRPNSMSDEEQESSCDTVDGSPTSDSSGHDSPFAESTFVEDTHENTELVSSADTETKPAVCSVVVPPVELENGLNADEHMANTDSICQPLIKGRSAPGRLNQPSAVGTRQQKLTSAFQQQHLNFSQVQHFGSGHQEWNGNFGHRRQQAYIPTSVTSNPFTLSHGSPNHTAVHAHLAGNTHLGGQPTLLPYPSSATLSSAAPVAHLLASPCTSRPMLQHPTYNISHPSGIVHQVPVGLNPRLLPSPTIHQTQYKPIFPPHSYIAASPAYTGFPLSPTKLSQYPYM

Chain of CDK1/cyclin B (P06493 whole entry): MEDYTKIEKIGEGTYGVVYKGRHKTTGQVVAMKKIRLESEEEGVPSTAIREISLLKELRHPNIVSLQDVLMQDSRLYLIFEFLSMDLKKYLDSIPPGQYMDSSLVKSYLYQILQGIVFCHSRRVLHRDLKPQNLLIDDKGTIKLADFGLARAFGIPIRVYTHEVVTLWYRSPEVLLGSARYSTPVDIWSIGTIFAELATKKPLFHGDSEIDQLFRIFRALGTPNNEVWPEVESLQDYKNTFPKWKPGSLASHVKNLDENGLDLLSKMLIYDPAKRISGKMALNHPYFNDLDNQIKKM
Chain of CDK1/cyclin B (P14635 whole entry partner): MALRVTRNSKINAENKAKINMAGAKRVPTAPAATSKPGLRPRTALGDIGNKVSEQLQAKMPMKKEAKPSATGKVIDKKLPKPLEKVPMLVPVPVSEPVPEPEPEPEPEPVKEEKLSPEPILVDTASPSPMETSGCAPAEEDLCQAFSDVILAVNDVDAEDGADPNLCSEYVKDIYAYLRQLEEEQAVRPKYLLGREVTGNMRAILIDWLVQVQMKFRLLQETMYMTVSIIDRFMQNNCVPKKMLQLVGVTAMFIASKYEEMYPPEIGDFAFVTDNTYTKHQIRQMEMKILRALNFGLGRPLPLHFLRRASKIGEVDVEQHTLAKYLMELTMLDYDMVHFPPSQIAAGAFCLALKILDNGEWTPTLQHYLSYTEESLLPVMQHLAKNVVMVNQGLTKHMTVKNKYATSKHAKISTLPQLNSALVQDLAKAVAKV

Row | SMILES | remaining activity at 1 µM (CDK1/cyclin B) [%] | % enzyme activity (LIMK1) [%] | % enzyme activity (RET) [%] | remaining activity at 1 µM (CDK4/cyclin D3) [%] | % enzyme activity (CDK9/cyclin T2) [%] | remaining activity at 1 µM (ULK2) [%] | remaining activity at 1 µM (CDK14/cyclin Y (PFTK1)) [%] | remaining activity at 1 µM (WNK2) [%] | remaining activity at 1 µM (VRK2) [%] | % enzyme activity (DYRK2) [%] | % enzyme activity (CLK1) [%] | % enzyme activity (CAMK2b) [%] | % enzyme activity (PHKg2) [%] | remaining activity at 1 µM (HIPK3) [%]
1 | COc1cc(-c2cncc(-c3ccc(N4CCN(C)CC4)cc3)c2C)cc(F)c1C(N)=O [Compound 26a, 2-Fluoro-6-methoxy-4-(4-methyl-5-(4-(4-methylpiperazin-1-yl)phenyl)pyridin-3-yl)benzamide] | 95.7 | 64.18 | 94.34 | 101 | 99.00 | 73.7 | 98.4 | 95.5 | 89.1 | 95.06 | 94.42 | 83.40 | 93.32 | 97.8
2 | COc1cc(-c2cncc(-c3ccc(N4C[C@@H](C)N(C)[C@@H](C)C4)cc3)c2C)cc(F)c1C(N)=O [Compound 26c, 2-Fluoro-6-methoxy-4-(4-methyl-5-(4-((3R,5S)-3,4,5-trimethylpiperazin-1-yl)phenyl)pyridin-3-yl)benzamide] | 94 | 72.63 | 93.64 | 96 | 100.35 | 85.2 | 99.8 | 96.9 | 92.5 | 98.44 | 86.91 | 91.32 | 96.43 | 90.4
